The numbers were not newly measured in article PMC5643527, “In vivo imaging of lung inflammation with neutrophil-specific ^68Ga nano-radiotracer” (Scientific Reports, 2017), which cites them from elsewhere.

In data set [1] the target is formyl peptide receptor 1 (FPR-1). As to conditions: antagonist of FPR-1; read-out: binding affinity (Kd). Here is the method: A particularly interesting compound is the peptide N-cinnamoyl-F-(D)L-F-(D)L-F (cFLFLF), an antagonist of formyl peptide receptor 1 (FPR-1). The very high binding affinity of cFLFLF (Kd = 2 nM) is the main reason for its use in neutrophil-specific probes for PET and optical fluorescence[7],[8],[10]. However, the high hydrophobicity of cFLFLF produces very poor target-to-background ratios. This serious limitation is the reason why to date the amount of radiotracer reaching the inflammation site is below 1% (expressed as the % of injected dose per mass of the organ)[7],[10]. || Inflammation is a central feature of many clinical conditions and can be broadly classified as acute or chronic. Acute inflammation typically occurs over a timescale of minutes to hours, whereas chronic inflammation can develop over several days to months. The predominant cell type in acute inflammation is the neutrophil, whereas chronic inflammation features a greater variety of cell types.

Data set [2] addresses formyl peptide receptor 1 (Homo sapiens) (UniProt P21462).
UniProt P21462, sequence (P21462 whole entry): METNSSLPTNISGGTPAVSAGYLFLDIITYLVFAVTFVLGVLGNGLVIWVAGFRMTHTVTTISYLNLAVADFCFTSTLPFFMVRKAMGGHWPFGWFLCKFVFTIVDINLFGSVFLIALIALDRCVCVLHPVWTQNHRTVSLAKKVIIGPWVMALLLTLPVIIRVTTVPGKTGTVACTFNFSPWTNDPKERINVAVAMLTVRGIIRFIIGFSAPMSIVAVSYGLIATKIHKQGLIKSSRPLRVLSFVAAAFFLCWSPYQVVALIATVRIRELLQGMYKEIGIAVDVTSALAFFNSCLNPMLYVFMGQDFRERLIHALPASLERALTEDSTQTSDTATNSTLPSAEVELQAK

On to N-cinnamoyl-F-(D)L-F-(D)L-F [cFLFLF], for which the Kd in data set [1] is 2 nM. On to cFLFLF (N-cinnamoyl-F-(D)L-F-(D)L-F), for which, in data set [2], the Kd was 2 nM.
